In patent US12570682B2, “Method for increasing bulk density of nicotinamide mononucleotide crystal and crystal thereof” (BONTAC BIO-ENGINEERING (SHENZHEN) CO., LTD, priority 2021, dated 2026):
Where two headings read alike, the source gives them in different places.

Legend:
[1] = loose bulk density measurement of nicotinamide mononucleotide crystals (sieve, weigh, graduated cylinder); assay type: physicochemical
Description: Bulk densities mentioned below are all loose bulk densities, and specific values are measured by the following method: taking an object to be tested, sieving the object (1.00 mm No. 18), accurately weighing the object, slowly pouring the object into a glass graduated cylinder, scraping the top, recording an apparent volume, and calculating the bulk density; and taking 3 same samples for parallel measurement, recording the readings, and using an average value as a measurement result.

[2] = prior-art crystals (CN108697722A; CN11269505A embodiment data); cited from earlier work
[3] = CN11269505A embodiment data; cited from earlier work
[4] = loose bulk density, average of 3 parallel samples

Q: What does the source list for `NC(=O)c1ccc[n+]([C@@H]2O[C@H](COP(=O)([O-])O)[C@@H](O)[C@H]2O)c1` [Example 2, nicotinamide mononucleotide]?
A: Bulk density ([1]; cooling rate 1, crystallization end temperature 10, water content 10%, pH 3.5): 0.93 g/mL; Bulk density ([1]; cooling rate 1, crystallization end temperature 18, water content 10%, pH 3.5): 0.88 g/mL; Bulk density ([1]; cooling rate 3, crystallization end temperature 10, water content 10%, pH 3.5): 0.93 g/mL; Bulk density ([1]; cooling rate 5, crystallization end temperature 5, water content 10%, pH 3.5): 0.92 g/mL; Bulk density ([1]; cooling rate 5, crystallization end temperature 10, water content 10%, pH 3.5): 0.92 g/mL; Bulk density ([1]; cooling rate 5, crystallization end temperature 18, water content 10%, pH 3.5): 0.88 g/mL; Bulk density ([1]; cooling rate 10, crystallization end temperature 5, water content 10%, pH 3.5): 0.88 g/mL; Bulk density ([1]; cooling rate 10, crystallization end temperature 10, water content 10%, pH 3.5): 0.89 g/mL; Bulk density ([1]; cooling rate 10, crystallization end temperature 18, water content 10%, pH 3.5): 0.84 g/mL; Bulk density ([1]; cooling rate 15, crystallization end temperature 8, water content 10%, pH 3.5): 0.84 g/mL; Bulk density ([1]; cooling rate 15, crystallization end temperature 10, water content 10%, pH 3.5): 0.84 g/mL; Bulk density ([1]; cooling rate 15, crystallization end temperature 18, water content 10%, pH 3.5): 0.82 g/mL; Bulk density ([1]; cooling rate 15, crystallization end temperature 25, water content 10%, pH 3.5): 0.34 g/mL; Bulk density ([1]; cooling rate 20, crystallization end temperature 10, water content 10%, pH 3.5): 0.35 g/mL

Q: Which Bulk density [1, 4] does the source give for `NC(=O)c1ccc[n+]([C@@H]2O[C@H](COP(=O)([O-])O)[C@@H](O)[C@H]2O)c1` [Example 8, nicotinamide mononucleotide] here?
A: 1.24 g/mL

Q: Which results are given for `NC(=O)c1ccc[n+]([C@@H]2O[C@H](COP(=O)([O-])O)[C@@H](O)[C@H]2O)c1` [Example 3, nicotinamide mononucleotide]?
A: Bulk density ([1]; pH value of aqueous solution of NMN 3.5, water content 10%, cooling 10° C./h to 10° C.): 0.89 g/mL; Bulk density ([1]; pH value of aqueous solution of NMN 4.5, water content 10%, cooling 10° C./h to 10° C.): 1.08 g/mL; Bulk density ([1]; pH value of aqueous solution of NMN 5.0, water content 10%, cooling 10° C./h to 10° C.): 1.09 g/mL; Bulk density ([1]; pH value of aqueous solution of NMN 5.5, water content 10%, cooling 10° C./h to 10° C.): 1.09 g/mL; Bulk density ([1]; pH value of aqueous solution of NMN 6.0, water content 10%, cooling 10° C./h to 10° C.): 1.07 g/mL; Bulk density ([1]; pH value of aqueous solution of NMN 6.5, water content 10%, cooling 10° C./h to 10° C.): 1.08 g/mL; Bulk density ([1]; pH value of aqueous solution of NMN 7.0, water content 10%, cooling 10° C./h to 10° C.): 0.81 g/mL

Q: With `NC(=O)c1ccc[n+]([C@@H]2O[C@H](COP(=O)([O-])O)[C@@H](O)[C@H]2O)c1` [Comparative Example 3, nicotinamide mononucleotide] as the compound, how does the Bulk density [1, 4] read?
A: 0.40 g/mL

Q: Which results are given for `NC(=O)c1ccc[n+]([C@@H]2O[C@H](COP(=O)([O-])O)[C@@H](O)[C@H]2O)c1` [form 1, β-nicotinamide mononucleotide, reference compound]?
A: Bulk density ([1]; loose bulk density, average of 3 parallel samples, listed as nicotinamide mononucleotide anhydrous crystal): 0.20 g/mL; Bulk density [2]: about 0.2 g/ml

Q: For `NC(=O)c1ccc[n+]([C@@H]2O[C@H](COP(=O)([O-])O)[C@@H](O)[C@H]2O)c1` [Example 7, nicotinamide mononucleotide], which Bulk density [1, 4] is on record?
A: 0.95 g/mL

Q: For `NC(=O)c1ccc[n+]([C@@H]2O[C@H](COP(=O)([O-])O)[C@@H](O)[C@H]2O)c1` [Example 4, nicotinamide mononucleotide], which Bulk density [1, 4] is on record?
A: 1.02 g/mL

Q: With `NC(=O)c1ccc[n+]([C@@H]2O[C@H](COP(=O)([O-])O)[C@@H](O)[C@H]2O)c1` [Comparative Example 1, nicotinamide mononucleotide] as the compound, how does the Bulk density [1, 4] read?
A: 0.23 g/mL

Q: Which Bulk density [1, 4] does the source give for `NC(=O)c1ccc[n+]([C@@H]2O[C@H](COP(=O)([O-])O)[C@@H](O)[C@H]2O)c1` [Comparative Example 2, nicotinamide mononucleotide] here?
A: 0.20 g/mL

Q: Which results are given for `NC(=O)c1ccc[n+]([C@@H]2O[C@H](COP(=O)([O-])O)[C@@H](O)[C@H]2O)c1` [high-density NMN, nicotinamide mononucleotide]?
A: Bulk density [2]: 0.52 g/mL; tap density [3]: 0.71 g/mL

Q: With `NC(=O)c1ccc[n+]([C@@H]2O[C@H](COP(=O)([O-])O)[C@@H](O)[C@H]2O)c1` [form 2, β-nicotinamide mononucleotide] as the compound, how does the Bulk density [2] read?
A: about 0.2 g/ml

Q: Which Bulk density [1, 4] does the source give for `NC(=O)c1ccc[n+]([C@@H]2O[C@H](COP(=O)([O-])O)[C@@H](O)[C@H]2O)c1` [Comparative Example 4, nicotinamide mononucleotide] here?
A: 0.56 g/mL

Q: Which Bulk density [1, 4] does the source give for `NC(=O)c1ccc[n+]([C@@H]2O[C@H](COP(=O)([O-])O)[C@@H](O)[C@H]2O)c1` [Example 6, nicotinamide mononucleotide] here?
A: 1.21 g/mL

Q: For `NC(=O)c1ccc[n+]([C@@H]2O[C@H](COP(=O)([O-])O)[C@@H](O)[C@H]2O)c1` [Example 1, nicotinamide mononucleotide], which Bulk density ([1]; water content of semi-solid 1%, pH 3.5, ethanol, cooling 10° C./h to 10° C.) is on record?
A: 1.05 g/mL

Q: What about the Bulk density ([1]; water content of semi-solid 5%, pH 3.5, ethanol, cooling 10° C./h to 10° C.) of the same compound?
A: 1.03 g/mL

Q: And the Bulk density ([1]; water content of semi-solid 10%, pH 3.5, ethanol, cooling 10° C./h to 10° C.)?
A: 0.89 g/mL

Q: And the Bulk density ([1]; water content of semi-solid 15%, pH 3.5, ethanol, cooling 10° C./h to 10° C.)?
A: 0.77 g/mL

Q: What about the Bulk density ([1]; water content of semi-solid 20%, pH 3.5, ethanol, cooling 10° C./h to 10° C.) of the same compound?
A: 0.67 g/mL

Q: And the Bulk density ([1]; water content of semi-solid 25%, pH 3.5, ethanol, cooling 10° C./h to 10° C.)?
A: 0.56 g/mL

Q: What about the Bulk density ([1]; water content of semi-solid 35%, pH 3.5, ethanol, cooling 10° C./h to 10° C.) of the same compound?
A: 0.44 g/mL

Q: What about the Bulk density ([1]; water content of semi-solid 50%, pH 3.5, ethanol, cooling 10° C./h to 10° C.) of the same compound?
A: 0.33 g/mL

Q: And the Bulk density ([1]; water content of semi-solid 75%, pH 3.5, ethanol, cooling 10° C./h to 10° C.)?
A: 0.26 g/mL

Q: Which Bulk density [1, 4] does the source give for `NC(=O)c1ccc[n+]([C@@H]2O[C@H](COP(=O)([O-])O)[C@@H](O)[C@H]2O)c1` [Example 5, nicotinamide mononucleotide] here?
A: 1.17 g/mL
